Experimental findings from US10703764B2, “Benzopiperazine compositions as BET bromodomain inhibitors” (FORMA Therapeutics, Inc., priority 2013, dated 2020) are described below.

Assay [1] deals with T1, BRD4 BD1 (Homo sapiens, UniProt O60885).
T1 construct: made in house
Briefly: AlphaScreen binding assay, BRD4 Bromodomain 1. A digest of the protocol: (§1)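 Compound dilution series were mixed with His-tagged BRD4 bromodomain and biotinylated tetra-acetylated H4 (1-21) peptide at pH 7.3 (BD1 and peptide at 50 nM, BD2 and peptide at 100 nM). Donor and acceptor beads were then added, and plates were equilibrated at least 1 h before reading. IC50 values were fitted with a four-parameter logistic model.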
(Alpha assays give light when donor and acceptor beads are brought close together.)

Assay [2] addresses T2, BRD4 BD2 (Homo sapiens, UniProt O60885).
T2 construct: made in house
Briefly: AlphaScreen binding assay, BRD4 Bromodomain 2. In short, it runs like this: as §1

For assay [3], the system named is MV4-11 cells. As to the kind of experiment: Oncology cell growth assay (3-day proliferation, CellTiter-Glo). The format is cell-based. To be noted: Homo sapiens, MV4-11, 72 h, AML cell line MV4-11, 72 hours, compounds grouped by IC50 range, read-out: MV4-11 IC50 (inhibition of proliferation, gIC50). A digest of the protocol:
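A 3-day proliferation test used MV4-11 cells seeded at 3000 per well with eight compound concentrations (10 μM top, 3-fold dilution) at 37° C in 5% CO2. CellTiter-Glo luminescence defined viable cell signal. A four-parameter logistic curve against DMSO and background wells gave the gIC50.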

Where only a bound is given, the exact number is not on record here.

As for `CC(=O)N1c2ccc(-c3cccc(-n4nc(C)cc4C)c3)cc2N(C(=O)c2ccco2)C[C@@H]1C` [Example I-857], the IC50 is 100 to 1000 nM in assay [1], less than 50 nM in assay [2] and more than 500 nM in assay [3].
The like results for `CC(=O)N1c2ccc(-c3ccc(S(=O)(=O)C4CC4)cc3)cc2N(C(=O)C2CCC2)C[C@@H]1C` [Example I-1032] were, in that order, 1000 to 10000 nM, 50 to 500 nM and 100 to 500 nM.
The corresponding values for `CC(=O)N1c2ccc(-c3ccc(N4CCS(=O)(=O)CC4)cc3)cc2N(C(=O)OC(C)C)C[C@@H]1C` [Example I-467] are 100 to 1000 nM, 50 to 500 nM and 100 to 500 nM.
For the compound `CCS(=O)(=O)c1cccc(-c2ccc3c(c2)N(C(=O)C2CC2)C[C@H](C)N3C(C)=O)c1` [Example I-1090], the IC50 was 1000 to 10000 nM in assay [1], 50 to 500 nM in assay [2] and more than 500 nM in assay [3].
On to `CC(=O)N1c2ccc(-c3ccc(OCCC#N)cc3)cc2N(C(=O)c2ccco2)C[C@@H]1C` [Example I-428], for which the IC50 in assay [1] lay within 100 to 1000 nM; in assay [2], 50 to 500 nM; in assay [3] it was 100 to 500 nM.
The corresponding values for `CC(=O)N1c2ccc(-c3ccc(S(C)(=O)=O)cc3)cc2N(C(=O)Oc2ccc(F)cc2)C[C@@H]1C` [Example I-234] are 100 to 1000 nM, less than 50 nM and less than 100 nM.
Turning to `CC(=O)N1c2ccc(-c3cnn(CCS(C)(=O)=O)c3)cc2N(C(=O)OC(C)C)C[C@@H]1C` [Example I-303], the IC50 is less than 100 nM in assay [1], 50 to 500 nM in assay [2] and 100 to 500 nM in assay [3].
Take `CC(=O)N1c2ccc(-c3ccc(S(C)(=O)=O)cc3)cc2N(C(=O)Oc2ccccc2)C[C@@H]1C` [Example I-223]: the values for the IC50 in assay [1], in assay [2] and in assay [3] were 100 to 1000 nM, less than 50 nM and less than 100 nM, respectively.
In the case of `CC(=O)N1c2ccc(-c3cnn(CC(C)(C)F)c3)cc2N(C(=O)C2CC2)C[C@@H]1C` [Example I-145, (S)-1-(4-(cyclopropanecarbonyl)-6-(1-(2-fluoro-2-methylpropyl)-1H-pyrazol-4-yl)-2-methyl-3,4-dihydroquinoxalin-1 (2H)-yl)ethanone], the results for the IC50 in assay [1], in assay [2] and in assay [3] were 100 to 1000 nM, 50 to 500 nM and more than 500 nM, respectively.
The corresponding values for `COc1ccc(-c2ccc3c(c2)N(C(=O)C2CC2)C[C@H](C)N3C(C)=O)cc1NS(C)(=O)=O` [Example I-1139] are 1000 to 10000 nM, 50 to 500 nM and 100 to 500 nM.
Regarding `CC(=O)N1c2ccc(-c3ccc(S(=O)(=O)CCO)cc3)cc2N(C(=O)C2CC2)C[C@@H]1C` [Example I-449], the values for the IC50 in assay [1], in assay [2] and in assay [3] were 100 to 1000 nM, 50 to 500 nM and more than 500 nM, respectively.
As to `CC(C)OC(=O)N1C[C@H](C)N(C(=O)C2CC2)c2ccc(-c3ccc(N4CCS(=O)(=O)CC4)cc3)cc21` [Example I-468], the IC50 in assay [1] fell in the range of 100 to 1000 nM; in assay [2], 50 to 500 nM; in assay [3] it was 100 to 500 nM.
The corresponding values for `CC(C)OC(=O)N1C[C@H](C)N(C(=O)C2CC2)c2ccc(-c3cnn(CC4CCS(=O)(=O)CC4)c3)cc21` [Example I-609] are 100 to 1000 nM, 50 to 500 nM and more than 500 nM.
Turning to `CC(=O)N1c2ccc(-c3cn(S(=O)(=O)N(C)C)cn3)cc2N(C(=O)c2ccco2)C[C@@H]1C` [Example I-410], the IC50 in assay [1] is 100 to 1000 nM; in assay [2], less than 50 nM; in assay [3], 100 to 500 nM.
The corresponding values for `CC(=O)N1c2ccc(-c3cnn(C(C)(C)C)c3)cc2N(C(=O)OC(C)C)C[C@@H]1C` [Example I-330] are 100 to 1000 nM, 50 to 500 nM and 100 to 500 nM.
The like results for `CC(=O)N1c2ccc(-c3cnn(CC4(CO)COC4)c3)cc2N(C(=O)OC(C)C)C[C@@H]1C` [Example I-600] were, in that order, less than 100 nM, less than 50 nM and 100 to 500 nM.
The corresponding values for `CC(=O)N1c2ccc(-c3cnn(C4CC4)c3)cc2N(C(=O)Oc2ccc3c(c2)ncn3C)C[C@@H]1C` [Example I-1205] are 100 to 1000 nM, less than 50 nM and 100 to 500 nM.
For `CC(=O)N1c2ccc(-c3cnn(C4CC4)c3)cc2N(c2nn(C)c3ncccc23)C[C@@H]1C` [Example I-184, 1-[(2S)-6-(1-cyclopropyl-1H-pyrazol-4-yl)-2-methyl-4-{1-methyl-1H-pyrazolo[3,4-b]pyridin-3-yl}-1,2,3,4-tetrahydroquinoxalin-1-yl]ethan-1-one], the IC50 in assay [1] lay in the range of 100 to 1000 nM; in assay [2] it was 50 to 500 nM; in assay [3], 100 to 500 nM.
As to `CC(=O)N1c2ccc(-c3cnn(C4COC4)c3)cc2N(C(=O)OCCC(F)(F)F)C[C@@H]1C` [Example I-69, (S)-3,3,3-trifluoropropyl 4-acetyl-3-methyl-7-(1-(oxetan-3-yl)-1H-pyrazol-4-yl)-3,4-dihydroquinoxaline-1(2H)-carboxylate], the IC50 in assay [1] is less than 100 nM; in assay [2], less than 50 nM; in assay [3] it was 100 to 500 nM.
Consider `CC(=O)N1c2ccc(-c3ccc(S(N)(=O)=O)cc3)cc2N(C(=O)c2ccco2)C[C@@H]1C` [Example I-281], for which the IC50 in assay [1] was 1000 to 10000 nM; in assay [2] it was less than 50 nM; in assay [3] it was 100 to 500 nM.
The like results for `COC(=O)c1ccc(OC(=O)N2C[C@H](C)N(C(C)=O)c3ccc(-c4cnn(C5CC5)c4)cc32)cc1` [Example I-262] were, in that order, 100 to 1000 nM, less than 50 nM and 100 to 500 nM.
The like results for `CC(=O)N1c2ccc(-c3ccc4c(c3)CCCN4S(C)(=O)=O)cc2N(C(=O)OC(C)C)C[C@@H]1C` [Example I-1160] were, in that order, 100 to 1000 nM, 50 to 500 nM and 100 to 500 nM.
With `CC(=O)N1c2ccc(-c3ccc(C(=O)N4CCC[C@@H]4CN)cc3)cc2N(C(=O)OC(C)C)C[C@@H]1C` [Example I-592], the IC50 was 100 to 1000 nM in assay [1], 50 to 500 nM in assay [2] and 100 to 500 nM in assay [3].
The like results for `COC(=O)N1c2ccc(-c3cnn(CC(=O)N(C)C)c3)cc2N(C(=O)OC(C)C)C[C@@H]1C` [Example I-320] were, in that order, 100 to 1000 nM, 50 to 500 nM and more than 500 nM.
In the case of `COCCn1cc(-c2ccc3c(c2)N(C(=O)OC(C)C)C[C@H](C)N3C(=O)OC)cn1` [Example I-323], the results for the IC50 in assay [1], in assay [2] and in assay [3] were 100 to 1000 nM, 50 to 500 nM and 100 to 500 nM, respectively.
The corresponding values for `CC(=O)Nc1cc2c(cc1-c1ccc(S(C)(=O)=O)cc1)N(C(=O)OC(C)C)C[C@H](C)N2C(C)=O` [Example I-197, Isopropyl (S)-6-acetamido-4-acetyl-3-methyl-7-(4-(methylsulfonyl)phenyl)-3,4-dihydroquinoxaline-1(2H)-carboxylate] are 1000 to 10000 nM, more than 500 nM and more than 500 nM.
`COc1ccc(-c2ccc3c(c2)N(C(=O)C2CCC2)C[C@H](C)N3C(C)=O)cc1N1CCCS1(=O)=O` [Example I-1168]: the IC50 in assay [1] lay in the range of 100 to 1000 nM; in assay [2], 50 to 500 nM; in assay [3] it was 100 to 500 nM.
The corresponding values for `CNC(=O)N1c2ccc(-c3ccc(S(C)(=O)=O)cc3)cc2N(C(=O)c2ccco2)C[C@@H]1C` [Example I-988] are 1000 to 10000 nM, 50 to 500 nM and more than 500 nM.
As for `COc1cc(Cl)ccc1OC(=O)N1C[C@H](C)N(C(C)=O)c2ccc(-c3cnn(C4CC4)c3)cc21` [Example I-529], the results for the IC50 in assay [1], in assay [2] and in assay [3] were 100 to 1000 nM, less than 50 nM and less than 100 nM, respectively.
For `CC(=O)N1c2ccc(-c3cnn(C4CC4)c3)cc2N(c2nn(C)c3cc(F)ccc23)C[C@@H]1C` [Example I-54, (S)-1-(6-(1-cyclopropyl-1H-pyrazol-4-yl)-4-(6-fluoro-1-methyl-1H-indazol-3-yl)-2-methyl-3,4-dihydroquinoxalin-1(2H)-yl)ethanone], the IC50 in assay [1] was 100 to 1000 nM; in assay [2] it was 50 to 500 nM; in assay [3], less than 100 nM.
The like results for `CC(=O)N1c2ccc(-c3cnn(CC(C)C)c3)cc2N(C(=O)C2CC2)CC1C` (stereo not drawn) [Example I-670] were, in that order, 100 to 1000 nM, 50 to 500 nM and 100 to 500 nM.
The like results for `CC(=O)N1c2ccc(-c3ccc4c(c3)OCCO4)cc2N(C(=O)c2ccco2)C[C@@H]1C` [Example I-825] were, in that order, 100 to 1000 nM, less than 50 nM and more than 500 nM.
The like results for `CC(=O)N1c2ccc(-c3ccc4c(c3)CCN4S(C)(=O)=O)cc2N(C(=O)C2CC2)C[C@@H]1C` [Example I-352] were, in that order, less than 100 nM, less than 50 nM and less than 100 nM.
Turning to `COC(=O)N1c2ccc(-c3ccc(C(=O)N4CCNCC4)cc3)cc2N(C(=O)OC(C)C)C[C@@H]1C` [Example I-559], the IC50 lay in the range of 100 to 1000 nM in assay [1], 50 to 500 nM in assay [2] and 100 to 500 nM in assay [3].
Regarding `CC(=O)N1c2ccc(-c3cn(C)nn3)cc2N(C(=O)OC(C)C)C[C@@H]1C` [Example I-465], the IC50 in assay [1] fell in the range of 100 to 1000 nM; in assay [2] it was 50 to 500 nM; in assay [3], 100 to 500 nM.
The corresponding values for `CC(=O)N1c2ccc(-c3cccc(S(=O)(=O)NCCO)c3)cc2N(C(=O)C2CCC2)C[C@@H]1C` [Example I-1109] are 1000 to 10000 nM, 50 to 500 nM and more than 500 nM.
